From patent US5190922A (priority 1991, dated 1993) come the findings set out here.

One may read the Ki as the equilibrium dissociation constant of an inhibitor or competing ligand from its target.

Each structure is given as a SMILES string. Non-standard residues stand in square brackets, D forms with d. Residues, ends and D or L forms follow the SMILES beside them. ξ: configuration not given here. *: point of attachment. X10 = N=C(N)NCCCCN(C[C@H](CC1CCCCC1)N*)C(=O)Cc1ccccc1; Butanoyl(3S-Ph) = C[C@@H](CC(=O)*)c1ccccc1; NHCH2(2-pyridyl) = c1ccc(CN*)nc1; NMeF = CN[C@@H](Cc1ccccc1)C(=O)O; PhLac = O=C(O)[C@@H](O)Cc1ccccc1; X11 = O=[N+]([O-])c1cccc(CN*)c1; Cha = N[C@@H](CC1CCCCC1)C(=O)O; dCha = N[C@H](CC1CCCCC1)C(=O)O; Phe(ol) = N[C@H](CO)Cc1ccccc1; X2 = N#CC(Cc1ccccc1)C(=O)*; ξCha = NC(CC1CCCCC1)C(=O)O; X8 = c1ccc(C2(CN*)CC2)cc1; X7 = O=C(C(CO)c1ccccc1)*; Bz = O=C(c1ccccc1)*; OBn = c1ccc(CO*)cc1; X5 = c1ccc(NN*)cc1; X3 = N=C(N)NCCCN*

The first assay concerns the target T1, C5a Receptor (Homo sapiens, UniProt P21730).
T1 construct: 2.5-25 μg/mL of purified PMNL membrane fragments; from tissue; host or cells: polymorphonuclear leukocyte (PMNL) membrane fragments
T1 sequence (P21730 1-350): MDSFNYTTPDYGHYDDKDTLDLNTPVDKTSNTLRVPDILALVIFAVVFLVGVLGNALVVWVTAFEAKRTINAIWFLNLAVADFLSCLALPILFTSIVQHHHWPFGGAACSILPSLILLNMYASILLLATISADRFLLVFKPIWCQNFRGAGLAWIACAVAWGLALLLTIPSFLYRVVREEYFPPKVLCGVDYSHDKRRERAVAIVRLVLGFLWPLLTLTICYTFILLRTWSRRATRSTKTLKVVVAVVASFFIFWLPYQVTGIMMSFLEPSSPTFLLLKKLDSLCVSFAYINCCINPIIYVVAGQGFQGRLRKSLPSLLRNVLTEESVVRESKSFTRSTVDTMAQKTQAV
The assay can be described thus: Anaphylatoxin receptor binding Ki determination (inhibition of 125I-C5a binding to PMNL membrane fragments).
Conditions: not given
On the procedure:
Specific inhibition of C5 a binding activity of representative compounds of the present invention was measured using 0.03-1 nM ^125 I-C5 a with 2.5-25 μg/mL of purified PMNL membrane fragments (Borregaard, N.; Heiple, J. M.; Simons, E. R.; and Clark, R. A. J. Cell. Biol. 1983, 97, 52-61.). Free and membrane-bound ligand were separated by filtration.
Consider `CN[C@@H](Cc1ccccc1)C(=O)N[C@@H](CCCCN)C(=O)N1CCC[C@H]1C(=O)N[C@H](CC1CCCCC1)C(=O)N[C@@H](CC1CCCCC1)C(=O)NNc1ccccc1` [Example 163, (N-Methyl)Phenylalanyl-Lysyl-Prolyl-{(2R)-2-Amino-3-cyclohexylpropanoyl}-{(2S)-2-Amino-3-cyclohexylpropanoyl}-N-(N'-Phenyl)hydrazide] (H-[NMeF]KP[dCha][Cha]-X5), for which the affinity, expressed as Ki, was 140 nM. Same read-out and setting: next, `CN[C@@H](Cc1ccccc1)C(=O)N[C@@H](CCCCN)C(=O)N1CCC[C@H]1C(=O)N[C@H](CC1CCCCC1)C(=O)N[C@@H](CC1CCCCC1)CN(CCCCNC(=N)N)C(=O)Cc1ccccc1` [Example 78, N-(4-Guanidinobutyl)-N-[(N-Methyl)Phenylalanyl-Lysyl-Prolyl-{(2R)-2-Amino-3-cyclohexylpropanoyl}-{(2S)-2-Amino-3-cyclohexylpropyl}]-N-Phenylacetamide] (H-[NMeF]KP[dCha]-X10): 680 nM; `CN[C@@H](Cc1ccccc1)C(=O)N[C@@H](CCCCN)C(=O)N1CCC[C@H]1C(=O)N[C@H](CC1CCCCC1)C(=O)N[C@@H](Cc1ccccc1)C(=O)NCC1(c2ccccc2)CC1` [Example 100, (N-Methyl)Phenylalanyl-Lysyl-Prolyl-{(2R)-2-Amino-3-cyclohexylpropanoyl}-Phenylalanyl-N-{(1-Phenyl)cyclopropylmethyl}amide] (H-[NMeF]KP[dCha]F-X8): 91 nM. On the same count and under the same terms, next, `CN[C@@H](Cc1ccccc1)C(=O)N[C@@H](CCCCN)C(=O)N1CCC[C@H]1C(=O)N[C@H](CC1CCCCC1)C(=O)N[C@@H](Cc1ccccc1)C(=O)NCCCNC(=N)N` [Example 201, (N-Methyl)Phenylalanyl-Lysyl-Prolyl-{(2R)-2-Amino-3-cyclohexylpropanoyl}-Phenylalanyl-N-(3-Guanidinopropyl)amide] (H-[NMeF]KP[dCha]F-X3): 690 nM; `N#CC(Cc1ccccc1)C(=O)N[C@@H](CCCCN)C(=O)N1CCC[C@H]1C(=O)N[C@H](CC1CCCCC1)C(=O)N[C@@H](Cc1ccccc1)C(=O)N[C@H](CCCNC(=N)N)C(=O)O` (stereo partly drawn) [Example 99, {(2RS)-2-Cyano-3-phenylpropionyl}-Lysyl-Prolyl-{(2R)-2-Amino-3-cyclohexylpropanoyl}-Phenylalanyl-DArginyl-OH] (X2-KP[dCha]F[dR]-OH): 120 nM; `N=C(N)NCCC[C@@H](NC(=O)[C@H](CC1CCCCC1)NC(=O)[C@@H](CC1CCCCC1)NC(=O)[C@@H]1CCCN1C(=O)[C@H](CCCCN)NC(=O)c1ccccc1)C(=O)O` [Example 82, N-Benzoyl-Lysyl-Prolyl-{(2R)-2-Amino-3-cyclohexylpropanoyl}-{(2S)-2-Amino-3-cyclohexylpropanoyl}-DArginyl-OH] (Bz-KP[dCha][Cha][dR]-OH): 24000 nM.

Still in this assay, the particulars now being: 0.03-1 nM 125I-C5a, 2.5-25 μg/mL purified PMNL membrane fragments, filtration; read-out: Ki (In vitro C5a Receptor Binding Potency).
Turning to `CN[C@@H](Cc1ccccc1)C(=O)N[C@@H](CCCCN)C(=O)N1CCC[C@H]1C(=O)N[C@H](CC1CCCCC1)C(=O)N[C@H](CO)Cc1ccccc1` [Example 119, (N-Methyl)Phenylalanyl-Lysyl-Prolyl-{(2R)-2-Amino-3-cyclohexylpropanoyl}-{(S)-(-)-2-Amino-3-phenyl-1-propanol}] (H-[NMeF]KP[dCha][Phe(ol)]), the inhibition constant (Ki) amounted to 780 nM. For `N=C(N)NCCC[C@@H](NC(=O)[C@H](CC1CCCCC1)NC(=O)[C@@H](CC1CCCCC1)NC(=O)[C@@H]1CCCN1C(=O)[C@H](CCCCN)NC(=O)C(Cc1ccccc1)C(=O)O)C(=O)O` (mixture of isomers) [Example 149, {(R/S)-(2-Carboxyl)-3-phenylpropionyl}-Lysyl-Prolyl-{(2R)-2-Amino-3-cyclohexylpropanoyl}-{(2S)-2-Amino-3-cyclohexylpropanoyl}-DArginyl-OH], the Ki was determined as 22 nM. Take `CN[C@@H](Cc1ccccc1)C(=O)N[C@@H](CCCCN)C(=O)N1CCC[C@H]1C(=O)N[C@H](CC1CCCCC1)C(=O)N[C@@H](CC1CCCCC1)C(=O)NCc1cccc([N+](=O)[O-])c1` [Example 114, (N-Methyl)Phenylalanyl-Lysyl-Prolyl-{(2R)-2-Amino-3-cyclohexylpropanoyl}-{(2S)-2-Amino-3-cyclohexylpropanoyl}-N-(3-Nitrobenzyl)amide] (H-[NMeF]KP[dCha][Cha]-X11): the Ki was 130 nM.

With `N=C(N)NCCC[C@@H](NC(=O)[C@H](Cc1ccccc1)NC(=O)[C@@H](CC1CCCCC1)NC(=O)[C@@H]1CCCN1C(=O)[C@H](CCCCN)NC(=O)C(CO)c1ccccc1)C(=O)O` (stereo partly drawn) [Example 8, {(2R/S)-2-Hydroxymethyl-2-phenylacetyl}-Lysyl-Prolyl-{(2R)-2-Amino-3-cyclohexylpropanoyl}-Phenylalanyl-DArginyl-OH] (X7-KP[dCha]F[dR]-OH), the Ki worked out at 6200 nM. Still for that read-out and setting: for `N=C(N)NCCC[C@@H](NC(=O)[C@H](Cc1ccccc1)NC(=O)[C@@H](CC1CCCCC1)NC(=O)[C@@H]1CCCN1C(=O)[C@H](CCCCN)NC(=O)[C@@H](O)Cc1ccccc1)C(=O)O` [Example 84, {(3S)-Phenyllactyl)-Lysyl-Prolyl-{(2R)-2-Amino-3-cyclohexylpropanoyl}-Phenylalanyl-DArginyl-OH] (H-[PhLac]KP[dCha]F[dR]-OH) the value was 62 nM; for `CN[C@@H](Cc1ccccc1)C(=O)N[C@@H](CCCCN)C(=O)N1CCC[C@H]1C(=O)N[C@H](CC1CCCCC1)C(=O)NC(CC1CCCCC1)C(=O)OCc1ccccc1` (stereo partly drawn) [Example 159, (N-Methyl)Phenylalanyl-Lysyl-Prolyl-{(2R)-2-Amino-3-cyclohexylpropanoyl}-{(2R/S)-2-Amino-3-cyclohexylpropanoyl}O-Benzyl] (H-[NMeF]KP[dCha][ξCha]-OBn), 980 nM. As to `CN[C@@H](Cc1ccccc1)C(=O)N[C@@H](CCCCN)C(=O)N1CCC[C@H]1C(=O)N[C@H](CC1CCCCC1)C(=O)N[C@@H](CC1CCCCC1)C(=O)NCCCNC(=N)N` [Example 55, (N-Methyl)Phenylalanyl-Lysyl-Prolyl-{(2R)-2-Amino-3-cyclohexylpropanoyl}-{(2S)-2-Amino-3-cyclohexylpropanoyl}-N-(3-Guanidinopropyl)amide] (H-[NMeF]KP[dCha][Cha]-X3), the inhibitory constant (Ki) was determined as 7 nM. On the same count and under the same terms, next, `C[C@@H](CC(=O)N[C@@H](CCCCN)C(=O)N1CCC[C@H]1C(=O)N[C@H](CC1CCCCC1)C(=O)N[C@@H](CC1CCCCC1)C(=O)N[C@H](CCCNC(=N)N)C(=O)O)c1ccccc1` [Example 57, {S(+)-3-Phenylbutyryl}-Lysyl-Prolyl-{(2R)-2-Amino-3-cyclohexylpropanoyl}-{(2S)-2-Amino-3-cyclohexylpropanoyl}-DArginyl-OH] ({Butanoyl(3S-Ph)}-KP[dCha][Cha][dR]-OH): 27 nM; `CN[C@@H](Cc1ccccc1)C(=O)N[C@@H](CCCCN)C(=O)N1CCC[C@H]1C(=O)N[C@H](CC1CCCCC1)C(=O)N1CCN(Cc2ccccc2)CC1` [Example 117]: 110000 nM.

With `CN[C@@H](Cc1ccccc1)C(=O)N[C@@H](CCCCN)C(=O)N1CCC[C@H]1C(=O)N[C@H](CCCNC(=N)N)C(=O)N[C@@H](Cc1ccccc1)C(=O)NCc1ccccn1` [Example 199, (N-Methyl)Phenylalanyl-Lysyl-Prolyl-DArginyl-Phenylalanyl-N-(2-Picolyl)amide] (H-[NMeF]KP[dR]F-{NHCH2(2-pyridyl)}), the Ki was determined as 8400 nM.
